Data from patent US20090275529A1, “METHOD FOR IMPROVING CARDIOVASCULAR RISK PROFILE OF COX INHIBITORS” (priority 2008, published 2009).
“And” between values parts separate entries of the source, which are not always exact repeats. Identical values can stand only once. “Also recorded” adds a separate entry of the source.

Experiments:
[1] = system: ABCA1 mRNA in THP-1 cells; assay: ABCA1 mRNA by real-time PCR in THP-1 cells; assay type: cell-based, human; conditions: for effect on ABCA1 message: THP-1 monocytes/macrophages
[2] = system: cholesterol 27-OHase mRNA in THP-1 cells; assay: 27-OHase mRNA by real-time PCR (QRT-PCR) in THP-1 monocytes/macrophages; conditions: for effect on 27-OHase message: THP-1 monocytes/macrophages; for increase in 27-OHase message: THP-1 cells; for 27-OHase mRNA, % of control: THP-1 monocytes, MTX 5 μM, 18 hr, untreated = 100%, n=3
[3] = system: cholesterol 27-OHase protein in THP-1 cells; assay: 27-OHase protein by Western immunoblot in THP-1 monocytes; assay type: cell-based, human; conditions: NS-398 50 μM
Method: Western Blots: Total cell lysates were prepared for Western immunoblotting using RIPA lysis buffer (98% PBS, 1% Igepal CA-630, 0.5% sodium deoxycholate, 0.1% sodium dodecyl sulfate [SDS]). 100 μl of RIPA lysis buffer and 10 μl of protease inhibitor cocktail (Sigma) were added to the cell pellet from each condition and incubated on ice for 35 minutes with vortexing every 5 min. Supernatants were collected after centrifuging at 10,000 g at 4° C. for 10 minutes using an Eppendorf 5415C centrifuge. The quantity of protein in each supernatant was measured by absorption at 560 nm using a Hitachi U2010 spectrophotometer.
Total cell lysate was used for Western blots. Protein samples ([…]) were boiled for 5 minutes, loaded onto a 10% polyacrylamide gel, electrophoresed for 1.5 hr at 100V then transferred to a nitrocellulose membrane in a semi-dry transblot apparatus for 1 hour at 100V. […] The five washes in TTBS were repeated, then the immunoreactive protein was detected using ECL western blotting detection reagent (Amersham Biosciences, Cat No RPN2106) and film development in SRX-101A (Konica Minolta).
As a control, on the same transferred membrane, beta-actin was detected using mouse anti-beta-actin (diluted in 1:1000, from abCam, product Code: ab6276) and ECL sheep anti-mouse-IgG Horseradish peroxidase-linked species-specific whole antibody (diluted in 1:2000, from Amersham Biosciences, product Code NA931) and all other similar steps as above.
Total cell lysate was isolated for Western immunoblotting using RIPA lysis buffer (98% PBS, 1% Igepal CA-630, 0.5% sodium deoxycholate, 0.1% SDS). […] The quantity of protein in each supernatant was measured by absorption at 560 nm using a Hitachi U2010 spectrophotometer.
Cultured TUP-1 monocytic cells were untreated or exposed to NS-398 (50 μM, 18 hr) then untreated or exposed to increasing doses of MTX for 24 hr. Total cell protein was isolated and 27-OHase detected with specific rabbit polyclonal anti-human 27-OHase antibody. […]

[4] = rats, IV dose 0.3 mg/kg; cited from earlier work
[5] = system: 27-OHase mRNA in Balb/C murine macrophages; assay: 27-OHase mRNA in Balb/C murine macrophages; assay type: cell-based; conditions: 10^−5M, 3 hours, 37° C., n=3 per group
Text: A number of different highly receptor-specific agonists and antagonists of adenosine receptors have been developed that either mimic or block the effects of adenosine. […] Based on the upregulation of 27-OHase in murine cells upon exposure to CGS-21680, the same effect was established in human monocytoid cells. In THP-1 cells, ABCA1 mRNA increased in concert with 27-OHase.

[6] = system: THP-1 macrophages; assay: Foam cell formation in acetylated LDL-loaded THP-1 macrophages (oil red O); assay type: cell-based, human
Method: THP-1 human monocytes (1×10^6 cells/ml) in 12 well plates were treated with phorbol dibutyrate, 300 nM (Sigma) for 48 hr at 37° C. to facilitate differentiation into macrophages. The differentiated macrophages were washed three times with PBS, then incubated alone or in the presence of 10 μM NS-398 (37° C., 5% CO2, 18 hours). Cells were cholesterol-loaded with acetylated LDL (50 μg/ml) and further incubated in RPMI (37° C., 5% CO2) for 48 hours. Studies were performed in triplicate.
Immediately following incubation, media was aspirated and cells were fixed in the same 12 well plates used for incubation, with 4% paraformaldehyde in water, for 2-4 minutes. Cells were stained with 0.2% Oil-Red-O in methanol for 1-3 min. Cells were observed via light microscope (Axiovert 25-Zeiss) with 100× magnification and then photographed using a Kodak DC 290 Zoom Digital Camera. The number of foam cells formed in each condition were calculated manually and presented as percentage foam cell formation.
(§1) Media was aspirated and cells were rinsed 3 times with Dulbecco's Phosphate Buffered Saline (PBS) without Ca++ and Mg++. […] THP-1 macrophages were cholesterol-loaded with 50 μg/ml acetylated LDL and incubated an additional 48 h prior to oil red O staining.
Following incubation, media was aspirated and cells were fixed with 4% paraformaldehyde in water, for 2-4 min. Cells were stained with 0.4% trypan blue for 1-3 min, washed in PBS, and then stained with 0.2% oil-Red-O in methanol for 1-3 min. Observation and photography of cells was performed respectively via light microscope (NIKON Eclipse TE300) with 40× magnification and SONY Progressive 3CCD color video camera. The number of foam cells formed in each condition were calculated manually and presented as percentage foam cell formation.

[7] = system: ABCA1 protein in THP-1 cells; assay: ABCA1 protein by Western blot in THP-1 cells; assay type: cell-based, human; conditions: 50 μM
Method: ABCA1 Detection: For ABCA1 detection, macrophage cell lysates were electrophoresed for 1.5 hr at 100V (10% polyacrylamide gel), then transferred to a nitrocellulose membrane. The membrane was blocked for 4 hours at 4° C. in blocking solution then incubated overnight at 4° C. in a 1:200 dilution of rabbit anti-ABCA1antibody (Santa Cruz Biotechnology). The following day, the membrane was washed 5 times in TTBS for 5 mins per wash then incubated at room temperature in a 1:5000 dilution of ECL donkey anti-rabbit IgG Horseradish peroxidase-linked species-specific whole antibody. Development proceeded as described above for the 27-OHase antibody.
as §1
Western Blots: Total cell lysate protein samples (10 μg/lane) were boiled for 5 min, loaded onto a 7.5% polyacrylamide gel, electrophoresed for 1.5 hr at 100V then transferred to a nitrocellulose membrane in a semi-dry transblot apparatus for 1 hr at 100V. For ABCA1 detection, the primary antibody was a rabbit anti-human ABCA1 antibody (1:2000 dilution, Santa Cruz Biotechnology). […]

[8] = system: 27-OHase in peripheral blood monocytes; assay: 27-OHase in healthy monocytes isolated from peripheral blood (PBMC); assay type: cell-based, human; conditions: MTX 5 μM, 18 h
Method: PBMC (peripheral blood mononuclear cell) isolation: Blood from healthy donors was collected in EDTA treated tubes, pooled and kept at 4° C. The pooled blood was adjusted to a density of 1.120 g/ml with the addition of OptiPrep Density Gradient Media (Sigma) according to the manufacturer's instructions. The blood was then overlaid with a 1.074 g/ml density solution composed of complete RPMI containing 10% FBS and OptiPrep media. A layer of complete RPMI containing 10% FBS was then overlaid on top to prevent monocytes from sticking to the plastic tube. The blood was centrifuged at 750 g for 30 minutes at 4° C. After centrifugation, the monocyte interphase was collected from between the 1.074 g/ml and RPMI layer. The collected cells were diluted with 2 volumes of complete RPMI and harvested by centrifugation. The pellet was re-suspended in complete RPMI. The monocytes were counted by hemocytometer and plated at a density of 2×10^6 cells/well in a 6-well plate.
PBMC: PBMC were incubated for 18 h in RPMI with 10% FBS with and without the addition of MTX at a concentration of 5 μM. Cells were collected and RNA isolated.

[9] = vs NS-398 alone, NS-398 50 μM, CGS-21680 10 μM, 18 hrs
[10] = acetylated LDL-treated THP-1 macrophages, MTX series, control 39.3±5.0%, n=3
[11] = THP-1 macrophages, acetylated LDL

Compound: COC(=O)N1CCC(CC#Cc2nc(N)c3ncn([C@@H]4O[C@H](C(=O)NC5CC5)[C@@H](O)[C@H]4O)c3n2)CC1 [ATL313]
- effect on ABCA1 message [1]: increases 27-OHase as shown in FIG. 3b and ABCA1 mRNA and protein
- effect on 27-OHase message [2]: increases 27-OHase message

Compound: CCNC(=O)[C@H]1O[C@@H](n2cnc3c(N)nc(NCCc4ccc(CCC(=O)O)cc4)nc32)[C@H](O)[C@@H]1O [CGS-21680, 2-(4-(2-carboxyethyl)phenethylamino)-5′-N-ethylcarboxamidoadenosine]
- effect on 27-OHase protein [3]: this decrease is reversed by the addition of the adenosine A2A agonist CGS-21680
- terminal half-life [4]: 19 ± 4 min
- increase in ABCA1 mRNA on addition of CGS-21680 to NS-398-treated THP-1 cells [1, 9]: 141%
- increase in 27-OHase mRNA expression [5]: 47±6.2%
- increase in 27-OHase message [2]: ≤ 1.8 fold
- increase in 27-OHase mRNA on addition of CGS-21680 to NS-398-treated THP-1 cells [2, 9]: 184%

Compound: Cc1ccc(-c2cc(C(F)(F)F)nn2-c2ccc(S(N)(=O)=O)cc2)cc1 [Celecoxib, celecoxib]
- foam cells ([6]; 50 μM, acetylated LDL loading, control 39.1%±5.4): 95.0%±0.7
- decrease in ABCA1 protein expression vs. control [7]: 25.6%±1.3

Compound: Nc1nc(OCCc2ccc(Cl)cc2)nc2c1ncn2[C@@H]1O[C@H](CO)[C@@H](O)[C@H]1O [MRE-0094]
- increase in ABCA1 mRNA expression ([1]; THP-1 cells): 1.8 fold
- increase in 27-OHase message [2]: 2 fold

Compound: CN(Cc1cnc2nc(N)nc(N)c2n1)c1ccc(C(=O)N[C@@H](CCC(=O)O)C(=O)O)cc1 [MTX, methotrexate]
- effect on 27-OHase protein [3]: corrected with increasing concentrations of MTX
- effect on 27-OHase in peripheral blood monocytes [8]: increases 27-OHase
- effect on ABCA1 message [1]: effective in blocking COX-2 inhibitor-mediated downregulation of ABCA1 message
- effect on 27-OHase message [2]: completely blocked NS-398-induced downregulation of 27-OHase message
- 27-OHase mRNA, % of control ([2]; NS-398 50 μM, CGS-21680 10 μM): 113.9±6.4%

Compound: CS(=O)(=O)Nc1ccc([N+](=O)[O-])cc1OC1CCCCC1 [NS-398]
- effect on 27-OHase protein [3]: 27-OHase protein expression decreased
- foam cell transformation ([6]; THP-1 macrophages, NS-398 (10 μM, 18 hours), acetylated LDL, control 20.1±3.4%): 42.7±6.6%
- foam cells [6, 10]: 72.7±4.9%
- ABCA1 mRNA, % of control ([1]; THP-1 cells, NS-398 50 μM, CGS-21680 10 μM, 18 hrs, untreated = 100%, n=3): 71.1±3.9% and 60.49±4.42%
- effect on 27-OHase message [2]: dramatically reduced cholesterol 27-OHase message
- 27-OHase mRNA, % of control ([2]; NS-398 50 μM, CGS-21680 10 μM): 71.1±4.3% and 58.9±2.3% and 62.4±2.2%

Compound: Nc1nc(NCCc2ccc(O)cc2)nc2nc(-c3ccco3)nn12 [ZM-241385]
- effect on foam cell formation [6, 11]: prevents MTX from decreasing NS-398-induced foam cell formation
- foam cells after preincubation with A2A antagonist prior to MTX treatment ([6]; acetylated LDL-treated THP-1 macrophages, ZM-241385 then MTX): 62.1±1.5%
- reversal by A2A antagonist of agonist-induced rise in 27-OHase (and ABCA1) message ([2]; THP-1, ZM-241385 with ATL313 or MRE-0094): this is reversed by ZM-241385; also recorded: reversed the effect of MRE-0094 on both these messages

Compound: IFN-γ: recombinant human IFN-γ, atherosclerosis-promoting cytokine (R&D Systems)
- effect on foam cell formation [6, 11]: formed foam cells more rapidly and in greater proportion than untreated control cells
- foam cells [6, 10]: 71.0±5.0%
- effect on 27-OHase message [2]: decreasing 27-OHase and ABCA1 message and protein expression
